{"source": "ChEMBL document CHEMBL3885881", "about": "“DrugMatrix”", "organism": "Rattus norvegicus", "test": "DrugMatrix - Regimen: Daily Repeat", "format": "toxicity, organism-based, Sprague-Dawley", "set-up": "regimen Daily Repeat, gender Male, age 6-8 weeks", "settings": "in vivo, po, route oral GAVAGE; for ALANINE AMINOTRANSFERASE / ALBUMIN / ALKALINE PHOSPHATASE / ASPARTATE AMINOTRANSFERASE / BLOOD UREA NITROGEN / CARBON DIOXIDE / CHLORIDE / CHOLESTEROL / CREATINE PHOSPHOKINASE / CREATININE / GLUCOSE / LACTATE DEHYDROGENASE / LIPASE / PHOSPHORUS / POTASSIUM / SODIUM / TOTAL BILIRUBIN / TOTAL PROTEIN / URIC ACID: tissue Plasma", "key": {"[1]": {"settings": "4.5 mg/kg, 72 h, tissue Blood, dose level Low, time 3 day, vehicle 100 % WATER"}, "[2]": {"settings": "4.5 mg/kg, 72 h, dose level Low, time 3 day, vehicle 100 % WATER"}, "[3]": {"settings": "4.5 mg/kg, 120 h, tissue Blood, dose level Low, time 5 day, vehicle 100 % WATER"}, "[4]": {"settings": "4.5 mg/kg, 120 h, dose level Low, time 5 day, vehicle 100 % WATER"}, "[5]": {"settings": "7 mg/kg, 96 h, tissue Blood, dose level M1, time 4 day, […]"}}}
{"smiles": "COc1ccc2c(c1)c(CC(=O)O)c(C)n2C(=O)c1ccc(Cl)cc1", "note": "[INDOMETHACIN]", "values": [{"measurement": "HEMATOCRIT", "setting": "[1]", "value": 32.73, "unit": "%"}, {"measurement": "HEMOGLOBIN", "setting": "[1]", "value": 13.1, "unit": "G/DL"}, {"measurement": "LEUKOCYTE COUNT", "setting": "[1]", "value": 8.7, "unit": "x10E3/uL"}, {"measurement": "LYMPHOCYTE", "setting": "[1]", "value": 87.33, "unit": "%"}, {"measurement": "MEAN CORPUSCULAR HEMOGLOBIN", "setting": "[1]", "value": 25.43, "unit": "pg"}, {"measurement": "MEAN CORPUSCULAR HEMOGLOBIN CONCENTRATION", "setting": "[1]", "value": 40.03, "unit": "G/DL"}, {"measurement": "MEAN CORPUSCULAR VOLUME", "setting": "[1]", "value": 63.57, "unit": "fL"}, {"measurement": "MONOCYTE", "setting": "[1]", "value": 2.33, "unit": "%"}, {"measurement": "NEUTROPHIL", "setting": "[1]", "value": 10.33, "unit": "%"}, {"measurement": "NUCLEATED RED BLOOD CELLS", "setting": "[1]", "value": "0 /100WBC"}, {"measurement": "PLATELET COUNT", "setting": "[1]", "value": 1131.67, "unit": "x10E3/uL"}, {"measurement": "ALANINE AMINOTRANSFERASE", "setting": "[2]", "value": 52.67, "unit": "u/L"}, {"measurement": "ALBUMIN", "setting": "[2]", "value": 3.9, "unit": "G/DL"}, {"measurement": "ALKALINE PHOSPHATASE", "setting": "[2]", "value": 367, "unit": "u/L"}, {"measurement": "ASPARTATE AMINOTRANSFERASE", "setting": "[2]", "value": 74.33, "unit": "u/L"}, {"measurement": "BLOOD UREA NITROGEN", "setting": "[2]", "value": 13.67, "unit": "mg/dL"}, {"measurement": "CARBON DIOXIDE", "setting": "[2]", "value": 24.67, "unit": "mmol/L"}, {"measurement": "CHLORIDE", "setting": "[2]", "value": 94, "unit": "MEQ/L"}, {"measurement": "CHOLESTEROL", "setting": "[2]", "value": 72.33, "unit": "mg/dL"}, {"measurement": "CREATINE PHOSPHOKINASE", "setting": "[2]", "value": 273.33, "unit": "u/L"}, {"measurement": "CREATININE", "setting": "[2]", "value": 0.1, "unit": "mg/dL"}, {"measurement": "GLUCOSE", "setting": "[2]", "value": 165, "unit": "mg/dL"}, {"measurement": "LACTATE DEHYDROGENASE", "setting": "[2]", "value": 101.67, "unit": "u/L"}, {"measurement": "LIPASE", "setting": "[2]", "value": 9, "unit": "u/L"}, {"measurement": "PHOSPHORUS", "setting": "[2]", "value": 11.6, "unit": "mg/dL"}, {"measurement": "POTASSIUM", "setting": "[2]", "value": 5.46, "unit": "MEQ/L"}, {"measurement": "SODIUM", "setting": "[2]", "value": 137.1, "unit": "MEQ/L"}, {"measurement": "TOTAL BILIRUBIN", "setting": "[2]", "value": 0.13, "unit": "mg/dL"}, {"measurement": "TOTAL PROTEIN", "setting": "[2]", "value": 5.7, "unit": "G/DL"}, {"measurement": "URIC ACID", "setting": "[2]", "value": 0.8, "unit": "mg/dL"}, {"measurement": "ABSOLUTE BASOPHIL", "setting": "[3]", "value": 0, "unit": "CELLS/uL"}, {"measurement": "ABSOLUTE EOSINOPHIL", "setting": "[3]", "value": 66.67, "unit": "CELLS/uL"}, {"measurement": "ABSOLUTE LYMPHOCYTE", "setting": "[3]", "value": 7873.33, "unit": "CELLS/uL"}, {"measurement": "ABSOLUTE MONOCYTE", "setting": "[3]", "value": 253.33, "unit": "CELLS/uL"}, {"measurement": "ABSOLUTE SEGMENTED NEUTROPHIL", "setting": "[3]", "value": 1273.33, "unit": "CELLS/uL"}, {"measurement": "BASOPHIL", "setting": "[3]", "value": 0, "unit": "%"}, {"measurement": "EOSINOPHIL", "setting": "[3]", "value": 0.67, "unit": "%"}, {"measurement": "ERYTHROCYTE COUNT", "setting": "[3]", "value": 4.7, "unit": "x10E6/uL"}, {"measurement": "HEMATOCRIT", "setting": "[3]", "value": 30.3, "unit": "%"}, {"measurement": "HEMOGLOBIN", "setting": "[3]", "value": 12.03, "unit": "G/DL"}, {"measurement": "LEUKOCYTE COUNT", "setting": "[3]", "value": 9.47, "unit": "x10E3/uL"}, {"measurement": "LYMPHOCYTE", "setting": "[3]", "value": 83, "unit": "%"}, {"measurement": "MEAN CORPUSCULAR HEMOGLOBIN", "setting": "[3]", "value": 25.6, "unit": "pg"}, {"measurement": "MEAN CORPUSCULAR HEMOGLOBIN CONCENTRATION", "setting": "[3]", "value": 39.67, "unit": "G/DL"}, {"measurement": "MEAN CORPUSCULAR VOLUME", "setting": "[3]", "value": 64.47, "unit": "fL"}, {"measurement": "MONOCYTE", "setting": "[3]", "value": 2.67, "unit": "%"}, {"measurement": "NEUTROPHIL", "setting": "[3]", "value": 13.67, "unit": "%"}, {"measurement": "NUCLEATED RED BLOOD CELLS", "setting": "[3]", "value": "0 /100WBC"}, {"measurement": "PLATELET COUNT", "setting": "[3]", "value": 1362.67, "unit": "x10E3/uL"}, {"measurement": "ALANINE AMINOTRANSFERASE", "setting": "[4]", "value": 48.67, "unit": "u/L"}, {"measurement": "ALBUMIN", "setting": "[4]", "value": 3.83, "unit": "G/DL"}, {"measurement": "ALKALINE PHOSPHATASE", "setting": "[4]", "value": 350.67, "unit": "u/L"}, {"measurement": "ASPARTATE AMINOTRANSFERASE", "setting": "[4]", "value": 60.67, "unit": "u/L"}, {"measurement": "BLOOD UREA NITROGEN", "setting": "[4]", "value": 12, "unit": "mg/dL"}, {"measurement": "CARBON DIOXIDE", "setting": "[4]", "value": 32, "unit": "mmol/L"}, {"measurement": "CHLORIDE", "setting": "[4]", "value": 105, "unit": "MEQ/L"}, {"measurement": "CHOLESTEROL", "setting": "[4]", "value": 66.67, "unit": "mg/dL"}, {"measurement": "CREATINE PHOSPHOKINASE", "setting": "[4]", "value": 173.67, "unit": "u/L"}, {"measurement": "CREATININE", "setting": "[4]", "value": 0.11, "unit": "mg/dL"}, {"measurement": "GLUCOSE", "setting": "[4]", "value": 154, "unit": "mg/dL"}, {"measurement": "LACTATE DEHYDROGENASE", "setting": "[4]", "value": 70.33, "unit": "u/L"}, {"measurement": "LIPASE", "setting": "[4]", "value": 9.67, "unit": "u/L"}, {"measurement": "PHOSPHORUS", "setting": "[4]", "value": 11, "unit": "mg/dL"}, {"measurement": "POTASSIUM", "setting": "[4]", "value": 5.99, "unit": "MEQ/L"}, {"measurement": "SODIUM", "setting": "[4]", "value": 146.87, "unit": "MEQ/L"}, {"measurement": "TOTAL BILIRUBIN", "setting": "[4]", "value": 0.2, "unit": "mg/dL"}, {"measurement": "TOTAL PROTEIN", "setting": "[4]", "value": 5.77, "unit": "G/DL"}, {"measurement": "URIC ACID", "setting": "[4]", "value": 0.53, "unit": "mg/dL"}, {"measurement": "ABSOLUTE BASOPHIL", "setting": "[5]", "value": 0, "unit": "CELLS/uL"}, {"measurement": "ABSOLUTE EOSINOPHIL", "setting": "[5]", "value": 0, "unit": "CELLS/uL"}, {"measurement": "ABSOLUTE LYMPHOCYTE", "setting": "[5]", "value": 6250, "unit": "cells/µL"}, {"measurement": "ABSOLUTE MONOCYTE", "setting": "[5]", "value": 160, "unit": "cells/µL"}, {"measurement": "BASOPHIL", "setting": "[5]", "value": 0, "unit": "%"}, {"measurement": "EOSINOPHIL", "setting": "[5]", "value": 0, "unit": "%"}, {"measurement": "ERYTHROCYTE COUNT", "setting": "[5]", "value": 3.97, "unit": "x10E6/uL"}, {"measurement": "HEMATOCRIT", "setting": "[5]", "value": 25.4, "unit": "%"}, {"measurement": "HEMOGLOBIN", "setting": "[5]", "value": 8.9, "unit": "G/DL"}, {"measurement": "LEUKOCYTE COUNT", "setting": "[5]", "value": 12.7, "unit": "x10E3/uL"}, {"measurement": "LYMPHOCYTE", "setting": "[5]", "value": 78.5, "unit": "%"}, {"measurement": "MEAN CORPUSCULAR HEMOGLOBIN", "setting": "[5]", "value": 22.6, "unit": "pg"}, {"measurement": "MEAN CORPUSCULAR HEMOGLOBIN CONCENTRATION", "setting": "[5]", "value": 35.1, "unit": "G/DL"}, {"measurement": "MEAN CORPUSCULAR VOLUME", "setting": "[5]", "value": 64.5, "unit": "fL"}, {"measurement": "MONOCYTE", "setting": "[5]", "value": 2, "unit": "%"}, {"measurement": "NEUTROPHIL", "setting": "[5]", "value": 19.5, "unit": "%"}]}
